What was measured:
[1] = ND pulldown with UV-Vis spectrophotometric analysis of drug adsorption; format: physicochemical; details: 14,000 rpm, 2 hours, 25° C.
Protocol: All samples underwent centrifugation at 14,000 rpm for 2 hours at 25° C., where the supernatant was then subsequently collected for spectroscopic scans from 200 nm to 600 nm. Drug loading concentrations were determined via ND-complex pull-down experiments which comprised of an initial absorbance reading, then a 2 hour centrifuge of all samples at 25° C. and 14000 RPM followed by a final absorbance reading. The concentration of loaded drug was then calculated by measuring the difference between the initial and final readings.

[2] = Particle size and zeta potential measurement (DLS) of ND-drug complexes; format: physicochemical; details: for average particle size upon complexing with NDs: ND 1 mg/mL, therapeutic 0.1 mg/mL
Protocol: The particle size and zeta potential of the complexes were measured using a Zetasizer Nano (Malvern Instruments). […] ND:Purvalanol A complexes were prepared in a similar manner in 5% aqueous DMSO as described previously. […] All size measurements were performed at 25° C. at a 90° scattering angle. Mean hydrodynamic diameters were obtained via cumulative analysis of 11 measurements.

[3] = Dispersion in water / turbidity of drug with and without NDs; format: physicochemical; details: DMSO mixtures diluted 20 fold in water to 5% DMSO; 0.1 mg/ml Purvalanol A, 1 mg/ml ND
[4] = tested on: HepG2 tissue culture cells; test: DNA fragmentation (laddering) assay; format: cell-based; details: 24 hours, 10:1 ND:Purvalanol A in 5% DMSO in water, 1:10 dilution
Protocol: A 1:10 dilution of 5% DMSO in water, NDs in 5% DMSO in water (1 mg/ml), ND:Purvalanol A in 5% DMSO in water (10:1 ratio—1 mg/ml ND, 0.1 mg/ml Purvalanol A), and Purvalanol A in 5% DMSO in water (0.1 mg/ml) were added to HepG2 tissue culture cells and grown for 24 hours. The cultured cells were lysed in 500 μL lysis buffer (10 mM Tris-HCl, pH 8.0, 10 mM EDTA, 1% Triton X-100). 30-minute incubations at 37° C. followed separate RNase A and proteinase K treatment. Following phenol chloroform extraction, nuclear DNA was isolated in isopropyl alcohol and stored at −80° C. overnight. The samples were then resuspended in DEPC water following a 70% ethanol wash and electrophoresed using a 0.8% agarose gel, and finally stained with ethidium bromide.

[5] = Desorption of drug from Nanodiamond conjugates in water and PBS; format: physicochemical
[6] = Nanodiamond-drug binding assays (UV-vis spectrophotometry, centrifugation); format: physicochemical; details: UV-vis spectrophotometry and centrifugation (14000 rpm) pelleting
Protocol: The binding efficiency of therapeutics such as daunorubicin, idarubicin, and others were analyzed using UV-vis spectrophotometry, as well as centrifugation assays (SEE FIGS. 18-39). In all cases, nanodiamond-drug interactions were capable of comprehensively pelleting the therapeutics (SEE FIGS. 19, 22, 25, 28, 30, 33, 36, and 39), indicating potent adsorption which was further confirmed via spectrophotometric analysis […], […], 1-32, 34-35, and 37-38).

[7] = DLS analysis of NDs, insulin and ND-insulin (size, PDI, zeta potential); format: physicochemical; details: for Average Size (μm): DLS hydrodynamic cluster size
Protocol: Hydrodynamic size and zeta potential of samples was measured with a Zetasizer Nano (Malvern Instruments, Worcestershire, United Kingdom). NDs and insulin were prepared as previously described. Briefly, the particles were suspended in buffer with corresponding pH at a concentration of 50 mg/mL. The size measurements were performed at 25° C. and at a 173° scattering angle. The mean hydrodynamic diameter was determined by cumulative analysis. The zeta potential determinations were based on electrophoretic mobility of the microparticles in the aqueous medium, which was performed using folded capillary cells in automatic mode.

[8] = 5-day insulin desorption test; format: physicochemical; details: for cumulative insulin released from NDs by day 1: of total adsorbed insulin, 4:1 ratio
Protocol: Additionally, a 5-day desorption test was conducted to determine cumulative insulin release. Samples were prepared by combining NDs and insulin (4:1 ratio), centrifuging at 14,000 rpm for 2 hours and extracting the remaining solution to remove any non-adsorbed insulin. Subsequently, a 1 mM NaOH solution adjusted to pH 10.5 was added to the samples, mixed thoroughly and centrifuged after a 24-hour period to determine protein concentration utilizing a BCA assay. In addition to alkaline-mediated release, water was added to a separate set of samples. The samples were replenished with NaOH or water after each measurement for the respective conditions, and the process was repeated every 24 hours over the course of 5 days.

Insulin 1 (Ins1) = test: Quantitative RT-PCR gene expression, Ins1; format: cell-based, murine; details: 3T3-L1 adipocytes; serum-starved 4 hours, 2-hour recovery; (2) 0.1 μM insulin
Protocol: (§1) RT-PCR procedures were conducted as described previously. 3T3-L1 adipocytes were plated in 6-well plates, serum-starved for 4 hours and then recovered in media solutions of DMEM, insulin, approximately 0.1 μM insulin released from ND-insulin by NaOH (pH 10.5), resultant solution from centrifuged ND-insulin in pH-neutral water, ND-insulin treated with NaOH (1 μM total insulin) and NDs with bound insulin (ND-insulin, 1 μM total insulin). Preparations of media solutions containing DMEM, insulin, NDs and NaOH were conducted in a similar fashion to those implemented for the MTT assay. RNA isolation was completed by lysing cells with TRIzol reagent (Invitrogen Corporation, Carlsbad, Calif.) and added to chloroform to obtain genetic material by centrifugation. cDNA synthesis was performed using the iScript Select cDNA Synthesis Kit (Bio-Rad, Hercules, Calif.). PCR expression of the Ins1 and Csf3/G-csf genes (Integrated DNA Technologies, Coralville, Iowa) were quantified by the MyiQ Single Color Real-Time PCR machine (Bio-Rad, Hercules, Calif.) using SYBER Green detection reagents (Quanta Biosciences, Gaithersburg, Md.). The Rpl32 gene (Integrated DNA Technologies) served as the housekeeping gene for normalization of cDNA among samples.

[9] = Insulin desorption from NDs in NaOH of varying pH; format: physicochemical; details: 4:1 ratio; NaOH at pH 10.5
Protocol: Determination of insulin adsorption to NDs was performed by protein detection assays before and after centrifugation. Insulin was added to a ND suspension, centrifuged at 14,000 rpm for 2 hours and the resultant solution extracted and quantified. Detection of desorbed insulin was performed by adding alkaline solutions of 1 mM NaOH, adjusted for varying pH, to samples of ND-insulin in suspension. Binding ratios were determined similar to the adsorption test.
The desorption assays were conducted in a similar manner as the adsorption assays. Aqueous solutions of FITC-labeled and standard insulin were added to ND suspensions at 5:1 and 4:1 ratios, respectively. Initial and centrifuged samples were measured, and the amount of insulin desorbed was calculated. […] Separate tests at pH 10.7 show the ND-insulin complex achieving 53.3±1.2% desorption.

[10] = tested on: Granulocyte colony-stimulating factor (Csf3/G-csf); test: Quantitative RT-PCR gene expression, Csf3/G-csf; format: cell-based, murine; details: 3T3-L1 adipocytes; (2) 0.1 μM insulin
Protocol: as §1

[11] = reference [38]; cited from earlier work
[12] = tested on: RAW 264.7 macrophage cells; test: MTT cell viability assay after serum starvation; format: cell-based, murine; details: serum-starved 8 hours, 24-hour recovery, 0.1 μM versus 1 μM insulin
Protocol: RAW 264.7 murine macrophages were plated in 96-well plates, serum-starved for 8 hours and then incubated for 24 hours. Post-starvation media was composed of the following conditions: DMEM, 0.1 μM insulin, 1 μM insulin, DMEM 10% FBS, approximately 0.1 μM insulin released from ND-insulin complex by NaOH at pH 10.5 (insulin present in media), resultant solution from centrifuged ND-insulin in water, ND-insulin treated with NaOH at pH 10.5 (1 μM total insulin, ND-insulin complex present in media) and ND-insulin (1 μM total insulin, ND-insulin complex present in media). Insulin released from NDs was prepared by centrifuging samples of NDs with adsorbed insulin in NaOH and extracting the resultant solution, which could be reconstituted with media to 0.1 μM insulin. In a similar fashion, water was utilized as a neutral solution for relevant desorption analysis. Methylthiazolyldiphenyl-tetrazolium bromide (MTT) solution (Sigma-Aldrich) was added corresponding to 10% of total volume, and then incubated for 3 hours. After formazan crystal formation, the media was removed and MTT solvent, 0.1N HCl in anhydrous isopropanol (Sigma-Aldrich), was added to samples to solubilize the MTT dye. Sample absorbance measurements occurred at 570 nm, accounting for background at a wavelength of 690 nm.

Question: With 4-hydroxytamoxifen [4-OHT] as the compound, how does the “UV-Vis absorbance of supernatant before and after centrifugation (pulldown)” value [1] read?
Answer: The value was “insignificant change in the UV-Vis absorbance”.

Question: What about the “average particle size upon complexing with NDs” value [2] of the same compound?
Answer: The value was 278.9 nm.

Question: What about the “mean diameter (particle size)” value ([2]; in 5% DMSO, not complexed) of the same compound?
Answer: Its value is 485.1 nm.

Question: With `CC(C)[C@H](CO)Nc1nc(Nc2cccc(Cl)c2)c2ncn(C(C)C)c2n1` [Purvalanol A] as the compound, how does the “turbidity after dilution in water” value [3] read?
Answer: The value was “precipitated out of solution, producing a turbid liquid”.

Question: What about the DNA fragmentation [4] of the same compound?
Answer: Its DNA fragmentation is “Fragmentation was evident”.

Question: What about the “average particle size upon complexing with NDs” value [2] of the same compound?
Answer: Its value is 556 nm.

Question: Which “release profile of drug desorbed from Nanodiamond conjugates” value [5] does the source give for `COc1cccc2c1C(=O)c1c(O)c3c(c(O)c1C2=O)C[C@@](O)(C(C)=O)C[C@@H]3O[C@H]1C[C@H](N)[C@H](O)[C@H](C)O1` [DAUN, daunorubicin] here?
Answer: Its value is “drug elution is sustained over several hours”.

Question: And the “binding / adsorption between ND surface and therapeutic” value [6]?
Answer: Its value is “exceptional binding”.

Question: What does the source list for `CC(=O)[C@]1(O)Cc2c(O)c3c(c(O)c2[C@@H](O[C@H]2C[C@H](N)[C@H](O)[C@H](C)O2)C1)C(=O)c1ccccc1C3=O` [IDA, idarubicin]?
Answer: release profile of drug desorbed from Nanodiamond conjugates [5]: drug elution is sustained over several hours; binding / adsorption between ND surface and therapeutic [6]: exceptional binding

Question: With insulin: bovine insulin (Sigma-Aldrich) as the compound, how does the “zeta potential at pH 10.5 compared with pH 7” value [7] read?
Answer: Its value is “substantially more negative”.

Question: What about the zeta potential ([7]; at both pH 7 and 10.5) of the same compound?
Answer: The zeta potential was “negative values”.

Question: And the PDI ([7]; pH 7)?
Answer: Its PDI is 0.97 ± 0.046.

Question: And the “Average Size (μm)” value ([7]; pH 7)?
Answer: The value was 1.59 ± 0.038 μm.

Question: And the PDI ([7]; pH 10.5)?
Answer: Its PDI is 0.99 ± 0.011.

Question: What about the “Average Size (μm)” value ([7]; pH 10.5) of the same compound?
Answer: The value was 2.28 ± 0.66 μm.

Question: What about the “amount of insulin released with NaOH relative to water” value ([8]; 5 days) of the same compound?
Answer: The value was “more than 20 times”.

Question: What about the “total insulin eluted from NDs by day 5” value ([8]; NaOH (pH 10.5)) of the same compound?
Answer: Its value is 45.8±3.8 wt %.

Question: And the “cumulative insulin released from NDs by day 1” value ([8]; NaOH (pH 10.5))?
Answer: The value was 32.7±1.9 wt %.

Question: What about the “total insulin eluted from NDs by day 5” value ([8]; water) of the same compound?
Answer: Its value is 2.2±1.2 wt %.

Question: What about the “cumulative insulin released from NDs by day 1” value ([8]; water) of the same compound?
Answer: The value was 0.2±0.1 wt %.

Question: What about the “relative expression of Ins1” value (Insulin 1 (Ins1)) of the same compound?
Answer: The value was “lowest expression of Ins1”.

Question: What about the “desorption (release) of standard insulin from NDs” value [9] of the same compound?
Answer: The value was 31.3±1.6%.

Question: And the “relative expression of Csf3/G-csf” value [10]?
Answer: The value was “comparably higher than that of Ins1”.

Question: What about the isoelectric point [11] of the same compound?
Answer: Its isoelectric point is “approximately 5.6”.

Question: And the relative viability [12]?
Answer: Its relative viability is “increased viability at higher insulin concentrations”.

Question: With `COc1cccc2c1C(=O)c1c(O)c3c(c(O)c1C2=O)C[C@@](O)(C(=O)CO)C[C@@H]3O[C@H]1C[C@H](N)[C@@H](O)[C@H](C)O1` [EPI, epirubicin] as the compound, how does the “release profile of drug desorbed from Nanodiamond conjugates” value [5] read?
Answer: Its value is “drug elution is sustained over several hours”.

Question: And the “binding / adsorption between ND surface and therapeutic” value [6]?
Answer: The value was “exceptional binding”.

— US10799593B2, “Nanodiamond particle complexes” (priority 2008, dated 2020)
